# Data from ChEMBL document CHEMBL1156023, “Grassystatins A-C from marine cyanobacteria, potent cathepsin E inhibitors that reduce antigen presentation” (J Med Chem, 2009).
# pIC50: −log10 of the molar value. Square brackets hold non-standard residues; d marks the D form. Peptide text beside a SMILES is read from it. * marks the point of attachment. Sta = CC(C)C[C@H](N)[C@@H](O)CC(=O)O; NMe2Val = CC(C)[C@@H](C(=O)*)N(C)C; dNMeF = CN[C@H](Cc1ccccc1)C(=O)O; dHiv = CC(C)[C@@H](O)C(=O)O; Hiv = CC(C)[C@H](O)C(=O)O
# Legend:
# [1] = target: T1, Vitamin K-dependent protein C (Homo sapiens, UniProt P04070); experiment: Inhibition of activated protein C assessed as residual activity at 10 uM after 10 to 15 mins by fluorescence assay in presence of 50% […] relative to control
# T1 sequence (P04070 43-197 limits assumed): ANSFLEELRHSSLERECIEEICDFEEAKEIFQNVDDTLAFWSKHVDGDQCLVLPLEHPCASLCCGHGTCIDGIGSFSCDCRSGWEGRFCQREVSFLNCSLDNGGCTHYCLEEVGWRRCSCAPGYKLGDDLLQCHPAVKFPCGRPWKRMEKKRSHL
# T1 sequence (P04070 212-461 limits assumed): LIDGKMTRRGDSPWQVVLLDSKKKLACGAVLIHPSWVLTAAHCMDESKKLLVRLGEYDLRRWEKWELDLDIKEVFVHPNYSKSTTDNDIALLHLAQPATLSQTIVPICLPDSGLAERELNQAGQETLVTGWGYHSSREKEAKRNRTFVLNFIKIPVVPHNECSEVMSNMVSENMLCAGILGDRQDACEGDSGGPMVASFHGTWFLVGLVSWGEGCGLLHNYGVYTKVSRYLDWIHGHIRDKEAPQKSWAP
# Caspase-9 = Caspase-9 (Homo sapiens, UniProt P55211); experiment: Inhibition of caspase 9 after 10 to 15 mins by fluorescence assay
# Chain of Caspase-9 (P55211 1-315 limits assumed): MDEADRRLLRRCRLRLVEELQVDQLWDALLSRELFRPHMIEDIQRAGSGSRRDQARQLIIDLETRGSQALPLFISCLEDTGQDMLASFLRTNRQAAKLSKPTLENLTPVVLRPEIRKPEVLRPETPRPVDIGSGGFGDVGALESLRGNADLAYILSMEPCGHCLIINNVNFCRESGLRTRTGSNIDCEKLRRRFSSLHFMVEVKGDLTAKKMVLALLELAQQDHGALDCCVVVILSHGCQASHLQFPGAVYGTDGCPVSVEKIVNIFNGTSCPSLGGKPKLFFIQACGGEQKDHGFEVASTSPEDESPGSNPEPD
# Chain of Caspase-9 (P55211 331-416 limits assumed): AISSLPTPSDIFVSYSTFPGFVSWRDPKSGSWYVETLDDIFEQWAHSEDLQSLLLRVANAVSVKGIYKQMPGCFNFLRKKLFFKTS
# Caspase-4 (Homo sapiens) = Caspase-4 (Homo sapiens) (UniProt P49662); experiment: Inhibition of caspase 4 assessed as residual activity at 10 uM after 10 to 15 mins by fluorescence assay relative to control
# Interstitial collagenase = Interstitial collagenase (Homo sapiens, UniProt P03956); experiment: Inhibition of MMP1 after 10 to 15 mins by fluorescence assay
# Chain of Interstitial collagenase (P03956 whole entry): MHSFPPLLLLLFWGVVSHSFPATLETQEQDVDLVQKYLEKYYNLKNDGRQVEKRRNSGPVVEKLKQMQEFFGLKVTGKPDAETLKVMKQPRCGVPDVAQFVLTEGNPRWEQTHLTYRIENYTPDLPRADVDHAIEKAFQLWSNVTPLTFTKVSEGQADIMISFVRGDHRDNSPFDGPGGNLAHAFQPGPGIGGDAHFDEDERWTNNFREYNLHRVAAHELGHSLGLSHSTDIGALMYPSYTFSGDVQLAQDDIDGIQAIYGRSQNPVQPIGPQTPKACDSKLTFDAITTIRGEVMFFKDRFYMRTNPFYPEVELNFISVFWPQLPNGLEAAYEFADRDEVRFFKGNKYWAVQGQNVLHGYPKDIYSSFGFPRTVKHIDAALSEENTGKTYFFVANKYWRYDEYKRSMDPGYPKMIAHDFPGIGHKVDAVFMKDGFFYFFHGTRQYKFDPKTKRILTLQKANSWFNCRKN
# Renin (Homo sapiens) = Renin (Homo sapiens) (UniProt P00797); experiment: Inhibition of human renin assessed as residual activity at 10 uM after 10 to 15 mins by fluorescence assay relative to control
# Chain of Renin (Homo sapiens) (P00797 whole entry): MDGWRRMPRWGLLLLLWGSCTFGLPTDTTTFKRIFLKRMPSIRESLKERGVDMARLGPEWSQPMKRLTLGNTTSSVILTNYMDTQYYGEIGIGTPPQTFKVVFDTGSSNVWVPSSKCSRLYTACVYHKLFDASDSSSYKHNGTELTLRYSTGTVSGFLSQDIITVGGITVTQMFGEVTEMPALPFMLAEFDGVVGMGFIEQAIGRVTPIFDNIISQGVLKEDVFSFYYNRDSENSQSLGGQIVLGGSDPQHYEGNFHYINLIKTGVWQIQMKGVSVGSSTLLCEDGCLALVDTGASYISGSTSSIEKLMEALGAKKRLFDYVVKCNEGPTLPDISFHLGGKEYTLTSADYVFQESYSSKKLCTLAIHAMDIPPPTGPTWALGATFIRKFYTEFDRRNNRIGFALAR
# [2] = target: Urokinase-type plasminogen activator (Homo sapiens) (UniProt P00749); experiment: Inhibition of urokinase assessed as residual activity at 10 uM after 10 to 15 mins by fluorescence assay relative to control
# Caspase-3 (Homo sapiens) = Caspase-3 (Homo sapiens) (UniProt P42574); experiment: Inhibition of caspase 3 assessed as residual activity at 10 uM after 10 to 15 mins by fluorescence assay relative to control
# [3] = target: Cathepsin E (Homo sapiens) (UniProt P14091); details: 5.08 to 100000 nM
# Collagenase 3 = Collagenase 3 (Homo sapiens, UniProt P45452); experiment: Inhibition of MMP13 assessed as residual activity at 10 uM after 10 to 15 mins by fluorescence assay relative to control
# Caspase-4 (Mus musculus) = Caspase-4 (Mus musculus) (UniProt P70343); experiment: Inhibition of mouse caspase 11 assessed as residual activity at 10 uM after 10 to 15 mins by fluorescence assay relative to control
# Chain of Caspase-4 (Mus musculus) (P70343 81-266 limits assumed): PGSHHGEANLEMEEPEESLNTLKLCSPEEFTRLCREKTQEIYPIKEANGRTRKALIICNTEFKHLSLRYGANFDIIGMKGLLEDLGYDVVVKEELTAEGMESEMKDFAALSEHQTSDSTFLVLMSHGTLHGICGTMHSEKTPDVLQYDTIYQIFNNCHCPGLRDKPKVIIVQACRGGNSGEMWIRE
# Chain of Caspase-4 (Mus musculus) (P70343 286-373 limits assumed): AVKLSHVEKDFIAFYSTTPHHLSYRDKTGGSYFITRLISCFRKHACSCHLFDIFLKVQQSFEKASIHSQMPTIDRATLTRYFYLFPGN
# [4] = target: T2, Matrix metalloproteinase-14 (Homo sapiens, UniProt P50281); experiment: Inhibition of MMP14 catalytic domain after 10 to 15 mins by fluorescence assay
# [5] = target: Plasminogen (Homo sapiens) (UniProt P00747); experiment: Inhibition of human plasmin assessed as residual activity at 10 uM after 10 to 15 mins by fluorescence assay relative to control
# [6] = target: Prothrombin (Homo sapiens) (UniProt P00734); experiment: Inhibition of thrombin alpha assessed as residual activity at 10 uM after 10 to 15 mins by fluorescence assay relative to control
# Caspase-1 (Homo sapiens) = Caspase-1 (Homo sapiens) (UniProt P29466); experiment: Inhibition of caspase 1 assessed as residual activity at 10 uM after 10 to 15 mins by fluorescence assay relative to control
# [7] = target: Dipeptidyl peptidase 1 (Homo sapiens) (UniProt P53634); experiment: Inhibition of cathepsin C assessed as residual activity at 10 uM after 10 to 15 mins by fluorescence assay relative to control
# Chain of Dipeptidyl peptidase 1 (Homo sapiens) (P53634 25-134 limits assumed): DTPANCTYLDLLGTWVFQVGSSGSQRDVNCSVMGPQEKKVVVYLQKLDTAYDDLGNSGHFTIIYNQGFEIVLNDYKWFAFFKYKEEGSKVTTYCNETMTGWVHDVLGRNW
# Chain of Dipeptidyl peptidase 1 (Homo sapiens) (P53634 231-394 limits assumed): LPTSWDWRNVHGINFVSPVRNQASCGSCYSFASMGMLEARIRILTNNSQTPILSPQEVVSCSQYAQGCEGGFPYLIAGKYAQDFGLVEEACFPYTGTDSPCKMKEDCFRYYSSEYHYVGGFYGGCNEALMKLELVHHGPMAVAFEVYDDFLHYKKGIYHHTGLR
# Chain of Dipeptidyl peptidase 1 (Homo sapiens) (P53634 395-463 limits assumed): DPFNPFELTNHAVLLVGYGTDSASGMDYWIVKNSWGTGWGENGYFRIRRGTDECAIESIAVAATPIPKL
# Stromelysin-1 = Stromelysin-1 (Homo sapiens, UniProt P08254); experiment: Inhibition of MMP3 assessed as residual activity at 10 uM after 10 to 15 mins by fluorescence assay relative to control
# Papain (Carica papaya) = Papain (Carica papaya) (UniProt P00784); experiment: Inhibition of papaya papain assessed as residual activity at 10 uM after 10 to 15 mins by fluorescence assay relative to control
# Chain of Papain (Carica papaya) (P00784 whole entry): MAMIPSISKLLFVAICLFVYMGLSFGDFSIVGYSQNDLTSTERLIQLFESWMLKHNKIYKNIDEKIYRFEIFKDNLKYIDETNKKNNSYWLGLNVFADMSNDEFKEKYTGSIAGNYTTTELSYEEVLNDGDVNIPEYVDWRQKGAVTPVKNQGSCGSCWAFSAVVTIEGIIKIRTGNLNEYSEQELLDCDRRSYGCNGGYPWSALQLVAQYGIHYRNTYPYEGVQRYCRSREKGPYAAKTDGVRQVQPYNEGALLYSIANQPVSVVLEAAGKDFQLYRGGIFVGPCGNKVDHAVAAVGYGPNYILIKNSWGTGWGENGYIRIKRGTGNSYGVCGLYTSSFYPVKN
# Caspase-8 (Homo sapiens) = Caspase-8 (Homo sapiens) (UniProt Q14790); experiment: Inhibition of caspase 8 assessed as residual activity at 10 uM after 10 to 15 mins by fluorescence assay relative to control
# Caspase-4 = Caspase-4 (Homo sapiens, UniProt P49662); experiment: Inhibition of caspase 4 after 10 to 15 mins by fluorescence assay
# Stromelysin-2 = Stromelysin-2 (Homo sapiens, UniProt P09238); experiment: Inhibition of MMP10 catalytic domain after 10 to 15 mins by fluorescence assay
# [8] = target: Caspase-10 (Homo sapiens) (UniProt Q92851); experiment: Inhibition of caspase 10 assessed as residual activity at 10 uM after 10 to 15 mins by fluorescence assay relative to control
# Chain of Caspase-10 (Homo sapiens) (Q92851 220-415 limits assumed): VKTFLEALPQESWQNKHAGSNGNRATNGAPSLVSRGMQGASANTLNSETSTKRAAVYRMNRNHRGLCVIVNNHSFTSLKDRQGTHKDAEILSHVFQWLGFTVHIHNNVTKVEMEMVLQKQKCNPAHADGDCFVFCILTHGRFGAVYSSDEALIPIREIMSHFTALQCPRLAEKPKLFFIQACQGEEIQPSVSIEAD
# Chain of Caspase-10 (Homo sapiens) (Q92851 416-521 limits assumed): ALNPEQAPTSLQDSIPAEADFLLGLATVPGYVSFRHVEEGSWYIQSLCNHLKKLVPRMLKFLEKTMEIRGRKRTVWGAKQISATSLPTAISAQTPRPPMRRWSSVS
# [9] = target: Dipeptidyl peptidase 9 (Homo sapiens) (UniProt Q86TI2); experiment: Inhibition of DPP9 assessed as residual activity at 10 uM after 10 to 15 mins by fluorescence assay relative to control
# [10] = target: Kallikrein-5 (Homo sapiens) (UniProt Q9Y337); experiment: Inhibition of kallikrein 5 assessed as residual activity at 10 uM after 10 to 15 mins by fluorescence assay relative to control
# Chain of Kallikrein-5 (Homo sapiens) (Q9Y337 whole entry): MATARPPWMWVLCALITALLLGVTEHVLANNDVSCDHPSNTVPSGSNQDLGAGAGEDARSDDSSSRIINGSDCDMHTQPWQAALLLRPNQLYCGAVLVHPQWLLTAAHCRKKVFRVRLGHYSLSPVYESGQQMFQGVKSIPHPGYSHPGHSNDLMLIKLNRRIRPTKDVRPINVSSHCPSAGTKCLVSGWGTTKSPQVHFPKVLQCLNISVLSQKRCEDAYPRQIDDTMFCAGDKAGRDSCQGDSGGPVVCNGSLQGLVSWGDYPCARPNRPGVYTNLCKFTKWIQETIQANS
# Caspase-5 = Caspase-5 (Homo sapiens, UniProt P51878); experiment: Inhibition of caspase 5 after 10 to 15 mins by fluorescence assay
# Neutrophil collagenase = Neutrophil collagenase (Homo sapiens, UniProt P22894); experiment: Inhibition of MMP8 catalytic domain after 10 to 15 mins by fluorescence assay
# Chain of Neutrophil collagenase (P22894 whole entry, the tested form may be a part): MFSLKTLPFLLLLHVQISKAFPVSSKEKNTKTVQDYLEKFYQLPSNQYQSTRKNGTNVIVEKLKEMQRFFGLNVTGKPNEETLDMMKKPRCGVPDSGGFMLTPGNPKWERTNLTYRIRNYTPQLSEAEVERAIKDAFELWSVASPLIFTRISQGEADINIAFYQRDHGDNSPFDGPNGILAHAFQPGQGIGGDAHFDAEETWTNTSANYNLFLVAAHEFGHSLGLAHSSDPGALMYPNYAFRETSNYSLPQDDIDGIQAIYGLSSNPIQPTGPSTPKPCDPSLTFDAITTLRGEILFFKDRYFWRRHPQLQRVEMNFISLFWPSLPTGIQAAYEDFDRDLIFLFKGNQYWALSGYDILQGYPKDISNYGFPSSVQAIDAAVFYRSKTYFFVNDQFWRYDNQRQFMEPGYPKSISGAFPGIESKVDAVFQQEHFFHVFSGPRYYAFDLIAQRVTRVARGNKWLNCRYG
# [11] = target: T1, Vitamin K-dependent protein C; experiment: Inhibition of activated protein C after 10 to 15 mins by fluorescence assay in presence of 50% […]
# Caspase-7 (Homo sapiens) = Caspase-7 (Homo sapiens) (UniProt P55210); experiment: Inhibition of caspase 7 assessed as residual activity at 10 uM after 10 to 15 mins by fluorescence assay relative to control
# Chain of Caspase-7 (Homo sapiens) (P55210 24-198 limits assumed): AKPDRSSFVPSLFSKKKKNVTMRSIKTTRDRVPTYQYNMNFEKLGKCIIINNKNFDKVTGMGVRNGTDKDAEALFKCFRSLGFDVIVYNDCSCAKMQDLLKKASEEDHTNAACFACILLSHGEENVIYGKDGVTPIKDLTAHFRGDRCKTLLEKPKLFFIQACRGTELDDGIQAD
# Chain of Caspase-7 (Homo sapiens) (P55210 207-303 limits assumed): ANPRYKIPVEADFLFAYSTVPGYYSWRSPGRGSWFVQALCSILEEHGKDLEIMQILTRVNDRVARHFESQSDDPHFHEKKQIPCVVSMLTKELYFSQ
# [12] = target: T2, Matrix metalloproteinase-14; experiment: Inhibition of MMP14 assessed as residual activity at 10 uM after 10 to 15 mins by fluorescence assay relative to control
# [13] = target: Matrix metalloproteinase-9 (Homo sapiens, UniProt P14780); experiment: Inhibition of MMP9 catalytic domain after 10 to 15 mins by fluorescence assay
# [14] = target: Stromelysin-3 (Homo sapiens) (UniProt P24347); experiment: Inhibition of MMP11 assessed as residual activity at 10 uM after 10 to 15 mins by fluorescence assay relative to control
# Renin = Renin (Homo sapiens, UniProt P00797); experiment: Inhibition of human renin after 10 to 15 mins by fluorescence assay
# Chain of Renin (P00797 whole entry): as the sequence (P00797 whole entry) above
# Caspase-2 = Caspase-2 (Homo sapiens, UniProt P42575); experiment: Inhibition of caspase 2 after 10 to 15 mins by fluorescence assay
# Chain of Caspase-2 (P42575 170-325 limits assumed): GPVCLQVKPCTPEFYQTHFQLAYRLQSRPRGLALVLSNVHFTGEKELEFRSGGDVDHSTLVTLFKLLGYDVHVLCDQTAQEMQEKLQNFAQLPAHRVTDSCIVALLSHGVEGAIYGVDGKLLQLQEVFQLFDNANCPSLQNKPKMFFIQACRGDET
# Chain of Caspase-2 (P42575 334-452 limits assumed): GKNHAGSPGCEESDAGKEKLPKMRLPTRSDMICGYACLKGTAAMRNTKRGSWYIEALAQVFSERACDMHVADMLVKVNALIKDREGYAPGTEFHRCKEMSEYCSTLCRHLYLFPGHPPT
smiles,measurement,setting,value
COC(=O)[C@@H]1CCCN1C(=O)[C@@H](Cc1ccccc1)N(C)C(=O)[C@H](C)NC(=O)[C@@H](NC(=O)C[C@H](O)[C@H](CC(C)C)NC(=O)[C@H](CC(N)=O)NC(=O)[C@H](CC(C)C)NC(=O)[C@H](OC(=O)[C@@H](OC(=O)[C@H](C(C)C)N(C)C)C(C)C)C(C)C)[C@@H](C)O [GRASSYSTATIN A] (NMe2Val-[Hiv][dHiv]LN[Sta]TA[dNMeF]P-OMe),Activity,[1],130%
same,pIC50,Caspase-9,5.30
same,Activity,Caspase-4 (Homo sapiens),64%
same,pIC50,Interstitial collagenase,5.30
same,Activity,Renin (Homo sapiens),96%
same,Activity,[2],79%
same,Activity,Caspase-3 (Homo sapiens),63%
same,inhibition,[3],tde
same,Activity,Collagenase 3,75%
same,Activity,Caspase-4 (Mus musculus),60%
same,pIC50,[4],5.30
same,Activity,[5],86%
same,Activity,[6],86%
same,Activity,Caspase-1 (Homo sapiens),90%
same,Activity,[7],110%
same,Activity,Stromelysin-1,86%
same,Activity,Papain (Carica papaya),101%
same,Activity,Caspase-8 (Homo sapiens),82%
same,pIC50,Caspase-4,5.30
same,pIC50,Stromelysin-2,5.30
same,Activity,[8],102%
same,Activity,[9],82%
same,Activity,[10],84%
same,pIC50,Caspase-5,5.30
same,pIC50,Neutrophil collagenase,5.30
same,pIC50,[11],4.30
same,Activity,Caspase-7 (Homo sapiens),62%
same,Activity,[12],76%
same,pIC50,[13],5.30
same,Activity,[14],88%
same,pIC50,Renin,4.30
same,pIC50,Caspase-2,5.30
